The record followed here is BindingDB's records for doi:10.1021/jm960794l (Institute of Cancer Research, 1997).

The assay is described as follows: Cytotoxicity in T79-A3 (NR-positive) cell lines.
Consider `NC(=O)c1cc(N2CC2)c([N+](=O)[O-])cc1[N+](=O)[O-]`, for which the IC50 is 0.89 µM.

`NC(=O)c1cc(N(CCCl)CCCl)c([N+](=O)[O-])cc1[N+](=O)[O-]` gave an IC50 of 15 µM.

In the case of `NC(=O)c1cc([N+](=O)[O-])cc([N+](=O)[O-])c1N(CCBr)CCBr` [2-[Bis-(2-bromo-ethyl)-amino]-3,5-dinitro-benzamide], the IC50 was 0.19 µM.

For the molecule `NC(=O)c1cc([N+](=O)[O-])cc([N+](=O)[O-])c1N(CCCl)CCCl` [2-[Bis-(2-chloro-ethyl)-amino]-3,5-dinitro-benzamide], inhibition was half-maximal at 7.5 µM (IC50).

Turning to `O=C(NCC(O)CO)c1cc([N+](=O)[O-])cc([N+](=O)[O-])c1N(CCCl)CCCl` (stereo unspecified) [2-[Bis-(2-chloro-ethyl)-amino]-N-(2,3-dihydroxy-propyl)-3,5-dinitro-benzamide], it took 13 µM to reach half-maximal inhibition (IC50).

The molecule `NC(=O)c1cc([N+](=O)[O-])cc([N+](=O)[O-])c1N(CCI)CCI` [2-[Bis-(2-iodo-ethyl)-amino]-3,5-dinitro-benzamide] registered an IC50 of 0.1 µM.

Molecule `O=C(NCC(O)CO)c1cc([N+](=O)[O-])cc([N+](=O)[O-])c1N(CCI)CCI` (stereo unspecified) [2-[Bis-(2-iodo-ethyl)-amino]-N-(2,3-dihydroxy-propyl)-3,5-dinitro-benzamide] displayed an IC50 of 4 µM.

Molecule `NC(=O)c1c([N+](=O)[O-])ccc(N(CCCl)CCCl)c1[N+](=O)[O-]` [3-[Bis-(2-chloro-ethyl)-amino]-2,6-dinitro-benzamide] showed an IC50 greater than 1000 µM.

In turn, `CN(C)CCNC(=O)c1c([N+](=O)[O-])ccc(N(CCCl)CCCl)c1[N+](=O)[O-]` [3-[Bis-(2-chloro-ethyl)-amino]-N-(2-dimethylamino-ethyl)-2,6-dinitro-benzamide] came in with an IC50 of 895 µM.

`NC(=O)c1cc(N(CCBr)CCBr)c([N+](=O)[O-])cc1[N+](=O)[O-]` [5-(bis(2-bromoethyl)amino)-2,4-dinitrobenzamide] registered a concentration for half-maximal inhibition (IC50) of 0.25 µM.

For the molecule `NC(=O)c1cc(N(CCI)CCI)c([N+](=O)[O-])cc1[N+](=O)[O-]` [5-(bis(2-iodoethyl)amino)-2,4-dinitrobenzamide], the IC50 stood at 0.23 µM.

With `O=C(NCC(O)CO)c1cc(N(CCI)CCI)c([N+](=O)[O-])cc1[N+](=O)[O-]` (stereo unspecified) [5-(bis(2-iodoethyl)amino)-N-(2,3-dihydroxypropyl)-2,4-dinitrobenzamide], half-maximal inhibition (IC50) required 1.9 µM.

`CS(=O)(=O)CCN(CCCl)c1cc(C(N)=O)c([N+](=O)[O-])cc1[N+](=O)[O-]` [5-[(2-Chloro-ethyl)-(2-methanesulfonyl-ethyl)-amino]-2,4-dinitro-benzamide] gave an IC50 of 3.4 µM.

In the case of `CS(=O)(=O)c1cc([N+](=O)[O-])c(C(N)=O)cc1N(CCCl)CCCl` [5-[Bis-(2-chloro-ethyl)-amino]-4-methanesulfonyl-2-nitro-benzamide], the IC50 stood at 58 µM.

`O=C(NCC(O)CO)c1cc(N(CCCl)CCCl)c([N+](=O)[O-])cc1[N+](=O)[O-]` (stereo unspecified) [5-[Bis-(2-chloro-ethyl)-amino]-N-(2,3-dihydroxy-propyl)-2,4-dinitro-benzamide] came in with an IC50 of 89 µM.

`CS(=O)(=O)CCN(CCS(C)(=O)=O)c1cc(C(N)=O)c([N+](=O)[O-])cc1[N+](=O)[O-]` [5-[Bis-(2-methanesulfonyl-ethyl)-amino]-2,4-dinitro-benzamide] gave an IC50 of 9.3 µM.
